How the values were obtained:
[1] = reference markers for permeability categories; cited from earlier work
human cathepsin S = biological target: T1, human cathepsin S (Homo sapiens, UniProt P25774); experiment: Cathepsin S Ki determination; format: biochemical; conditions: baculovirus-expressed enzyme, boc-Val-Leu-Lys-AMC substrate, pH 6.5; read-out: Ki Cat. S
T1 construct: made in house; host or cells: baculovirus expression system
Method: The assay uses baculovirus-expressed human cathepsin S and the boc-Val-Leu-Lys-AMC fluorescent substrate available from Bachem in a 384 well plate format, in which 7 test compounds can be tested in parallel with a positive control comprising a known cathepsin S inhibitor comparator.
280 μL/well of 12.5% DMSO are added to rows B-H of two columns of a 96 deep well polypropylene plate. 70 μL/well of substrate is added to row A. 2×250 μL/well of assay buffer (100 mM Na phosphate, 100 mM NaCl, pH 6.5) is added to row A, mixed, and double diluted down the plate to row H.
100 μL/well of assay buffer is added to columns 2-5 and 7-12 of 4 rows of a 96 well V bottom polypropylene plate. 200 μL/well of assay buffer is added to columns 1 and 6.
2 μl of each 10 mM test compound is added to a separate well on row A, columns 1-10. Add 90 μl assay buffer containing 1 mM DTT and 2 nM cathepsin S to each well of rows B-H and 180 μl to row A. Mix row A using a multichannel pipette and double dilute to row G. Mix row H and read in the fluorescent spectrophotometer. The readings are Prism data fitted to the competitive inhibition equation, setting S=100 μM and KM=100 μM to obtain an estimate of the up to a maximum of 100 μM.
The second test compound is added to column 6 of the top row, the third to column 1 of the second row etc. Add 1 μL of comparator to column 6 of the bottom row. Mix column 1 and double dilute to column 5. Mix column 6 and double dilute to column 10.
Using an 8-channel multistepping pipette set to 5×10 μL, distribute 10 μL/well of substrate to the 384 well assay plate. Distribute the first column of the substrate dilution plate to all columns of the assay plate starting at row A. The tip spacing of the multichannel pipette will correctly skip alternate rows. Distribute the second column to all columns starting at row B.
Using a 12-channel multistepping pipette set to 4×10 μL, distribute 10 μL/well of inhibitor to the 384 well assay plate. Distribute the first row of the inhibitor dilution plate to alternate rows of the assay plate starting at A1. The tip spacing of the multichannel pipette will correctly skip alternate columns. Similarly, distribute the second, third and fourth rows to alternate rows and columns starting at A2, B1 and B2 respectively.
Mix 20 mL assay buffer and 20 μL 1M DTT. Add sufficient cathepsin S to give 2 nM final concentration.
Using the a distributor such as a Multidrop 384, add 30 μL/well to all wells of the assay plate and read in fluorescent spectrophotometer such as an Ascent.
Fluorescent readings, (excitation and emission wavelengths 390 nm and 460 nm respectively, set using bandpass filters) reflecting the extent of enzyme cleavage of the fluorescent substrate, […] the inhibitor, are linear rate fitted for each well.
Fitted rates for all wells for each inhibitor are fitted to the competitive inhibition equation using SigmaPlot 2000 to determine V, Km and Ki values.
(§1) Potential inhibitors are screened using the above assay with variable concentrations of test compound. Reactions were initiated by addition of enzyme to buffered solutions of substrate and inhibitor. Ki values were calculated according to equation 1.
(§2) [formula] where v0 is the velocity of the reaction, V is the maximal velocity, S is the concentration of substrate with Michaelis constant of KM, and I is the concentration of inhibitor.

[2] = biological target: T2, human recombinant cathepsin K (Homo sapiens, UniProt P43235); experiment: Determination of cathepsin K proteolytic catalytic activity (Ki); format: biochemical; conditions: fluorogenic substrate H-D-Ala-Leu-Lys-AMC; read-out: Ki Cat. K
T2 construct: made in house; host or cells: not fixed: E coli, Pichia or Baculovirus systems named as options
T2 sequence (P43235 115-329): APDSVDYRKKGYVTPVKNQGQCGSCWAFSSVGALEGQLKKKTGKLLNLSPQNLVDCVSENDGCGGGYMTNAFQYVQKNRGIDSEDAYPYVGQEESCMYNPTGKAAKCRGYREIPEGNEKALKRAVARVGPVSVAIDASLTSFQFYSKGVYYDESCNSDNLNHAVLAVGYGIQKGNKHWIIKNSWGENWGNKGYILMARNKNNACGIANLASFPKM
Method: Convenient assays for cathepsin K are carried out using human recombinant enzyme, such as that described in PDB. • ID BC016058 standard; mRNA; HUM; 1699 BP. • DE Homo sapiens cathepsin K (pycnodysostosis), mRNA (cDNA clone MGC:23107 • RX MEDLINE;. RX PUBMED; 12477932. • DR RZPD; IRALp962G1234. • DR SWISS-PROT; P43235;
The recombinant cathepsin K can be expressed in a variety of commercially available expression systems including E coli, Pichia and Baculovirus systems. The purified enzyme is activated by removal of the prosequence by conventional methods.
Standard assay conditions for the determination of kinetic constants used a fluorogenic peptide substrate, typically H-D-Ala-Leu-Lys-AMC, and were determined in either 100 mM Mes/Tris, pH 7.0 containing 1 mM EDTA and 10 mM 2-mercaptoethanol or 100 mMNa phosphate, imM EDTA, 0.1% PEG4000 pH 6.5 or 100 mM Na acetate, pH 5.5 containing 5 mM EDTA and 20 mM cysteine, in each case optionally with […] as stabiliser. The enzyme concentration used was 5 nM. The stock substrate solution was prepared at 10 mM in DMSO. Screens were carried out at a fixed substrate concentration of 60 μM and detailed kinetic studies with doubling dilutions of substrate from 250 μM. The total DMSO concentration in the assay was kept below 3%. All assays were conducted at ambient temperature. Product fluorescence (excitation at 390 nm, emission at 460 nm) was monitored with a Labsystems Fluoroskan Ascent fluorescent plate reader. Product progress curves were generated over 15 minutes following generation of AMC product.
as §1, §2

human cathepsin L = human cathepsin L (Homo sapiens, UniProt P07711); experiment: Cathepsin L Ki; format: biochemical; conditions: H-D-Val-Leu-Lys-AMC substrate, pH5.5; read-out: Ki Cat. L
human cathepsin L, sequence (P07711 114-333): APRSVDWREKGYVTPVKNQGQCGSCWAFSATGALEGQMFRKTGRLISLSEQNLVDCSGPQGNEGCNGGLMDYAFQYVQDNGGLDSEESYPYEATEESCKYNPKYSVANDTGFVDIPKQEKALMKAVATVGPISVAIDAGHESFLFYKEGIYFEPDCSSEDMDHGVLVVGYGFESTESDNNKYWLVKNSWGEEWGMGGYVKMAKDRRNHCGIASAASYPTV
Method: The procedure above with the following amendments is used for the determination of Ki for cathepsin L.
The enzyme is commercially available human cathepsin L (for example Calbiochem). The substrate is H-D-Val-Leu-Lys-AMC available from Bahcem. The assay buffer is 100 mM sodium acetate 1 mM EDTA, pH5.5) The DMSO stock (10 mM in 100% DMSO) is diluted to 10% in assay buffer. Enzyme is prepared at 5 nM concentration in assay buffer plus 1 mM dithiothreitol just before use. 2 μL of 10 mM inhibitor made up in 100% DMSO is dispensed into row A. 10 μL of 50 μM substrate (=1/200 dilution of 10 mM stock in DMSO, diluted in assay buffer).
as §1, §2

T1 sequence (P25774 115-331): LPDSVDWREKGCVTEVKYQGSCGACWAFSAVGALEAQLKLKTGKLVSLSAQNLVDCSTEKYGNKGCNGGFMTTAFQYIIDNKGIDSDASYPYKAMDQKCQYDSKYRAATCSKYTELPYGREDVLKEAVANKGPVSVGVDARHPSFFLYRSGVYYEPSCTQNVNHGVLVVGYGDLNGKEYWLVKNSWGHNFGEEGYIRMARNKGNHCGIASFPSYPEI

Row | Ki (human cathepsin S) [nM] | Ki [2] [nM] | Ki (human cathepsin L) [nM] | SMILES | absorption in man (%) [1] [%]
1 |  |  |  | N[C@@H](Cc1ccccc1)C(=O)O [L-Phenylalanine] | 100
2 | 0.88 | 650 | 260 | Cc1ccc(C(=O)N[C@@H](CC2(F)CCCC2)C(=O)NC2(C(=O)C(N)=O)CCC2)cn1 [Example A7] | 
3 | 0.77 | 180 | 710 | NC(=O)C(=O)C1(NC(=O)[C@H](CC2(F)CCCC2)NC(=O)c2ccccn2)CCC1 [Example A34] | 
4 |  |  |  | CN(Cc1cnc2nc(N)nc(N)c2n1)c1ccc(C(=O)N[C@@H](CCC(=O)O)C(=O)O)cc1 [Methotrexate] | 20
5 | 3.7 | 1200 | 2600 | CC(C)(C)OC(=O)N[C@@H](CC1(F)CCCC1)C(=O)NC1(C(=O)C(N)=O)CC1 [Example C11] | 
6 |  |  |  | OC[C@@H](O)[C@@H](O)[C@H](O)[C@H](O)CO [Mannitol] | 16
7 | 31 | 15000 | 23000 | NC(=O)C(=O)C1(NC(=O)[C@H](CC2(F)CCCC2)NC(=O)C2(C(F)(F)F)CCC2)CCC1 [Example A28] | 
8 | 1.1 | 720 | 1700 | CC1(C[C@H](NC(=O)OC(C)(C)C)C(=O)NC2(C(=O)C(N)=O)CCC2)CCCC1 [Example C4] | 
9 | 2.3 | 990 | 11000 | CC1(C[C@H](NC(=O)C(C)(C)F)C(=O)NC2(C(=O)C(N)=O)CC(F)(F)C2)CCCC1 [Example A31] | 
10 | 0.3 | 630 | 1800 | CC1(C[C@H](NC(=O)C2CC2)C(=O)NC2(C(=O)C(N)=O)CCC2)CCCC1 [Example A2, Cyclopropanecarboxylic acid [1-(1-aminooxalyl-cyclobutylcarbamoyl)-2-(1-methyl-cyclopentyl)-ethyl]-amide] | 
11 | 0.084 | 500 | 230 | NC(=O)C(=O)[C@]1(NC(=O)[C@H](CC2(F)CCCC2)NC(=O)c2cccc(-n3ccnc3)c2)C[C@H](F)C1 [Example A1, N-[1-(1-Aminooxalyl-3-fluoro-cyclobutylcarbamoyl)-2-(1-fluoro-cyclopentyl)-ethyl]-3-imidazol-1-yl-benzamide] | 
12 | 2.8 | 1100 | 5300 | CCOC(=O)N[C@@H](CC1(F)CCCC1)C(=O)N[C@]1(C(=O)C(N)=O)C[C@@H](F)C1 [Example C5, [1-(1-Aminooxalyl-3-fluoro-cyclobutylcarbamoyl)-2-(1-fluoro-cyclopentyl)-ethyl]-carbamic acid ethyl ester] | 
13 | 2.7 | 1900 | 3200 | CC1(C[C@H](NC(=O)OC(C)(C)C)C(=O)NC2(C(=O)C(N)=O)CC2)CCCC1 [Example C12] | 
14 | 2.1 | 640 | 2800 | CC(C)OC(=O)N[C@@H](CC1(F)CCCC1)C(=O)NC1(C(=O)C(N)=O)CCC1 [Example C14] | 
15 | 7.6 | 4600 | > 200000 | NC(=O)C(=O)C1(NC(=O)[C@H](CC2(F)CCCC2)NC(=O)C2(C(F)(F)F)CC2)CC1 [Example A38] | 
16 | 0.1 | 140 | 180 | CC1(C[C@H](NC(=O)c2ccc(F)cc2)C(=O)NC2(C(=O)C(N)=O)CCC2)CCCC1 [Example A3] | 
17 | 6.4 | 2500 | 21000 | CCOC(=O)N[C@@H](CC1(F)CCCC1)C(=O)NC1(C(=O)C(N)=O)CCCC1 [Example C7, (S)-ethyl(1-((1-(2-amino-2-oxoacetyl)cyclopentyl)amino)-3-(1-fluorocyclopentyl)-1-oxopropan-2-yl)carbamate] | 
18 | 4.9 | 2300 | 12000 | CCC(=O)N[C@@H](CC1(C)CCCC1)C(=O)NC1(C(=O)C(N)=O)CCC1 [Example A4] | 
19 | 12 | 770 | 11000 | CC(C)(C)C[C@H](NC(=O)OC(C)(C)C)C(=O)N[C@]1(C(=O)C(N)=O)C[C@@H](F)C1 [Example C1, Tert-butyl(S)-1-((1r,3S)-1-(2-amino-2-oxoacetyl)-3-fluorocyclobutylamino)-4,4-dimethyl-1-oxopentan-2-ylcarbamate] | 
20 | 3.6 | 1300 | 14000 | NC(=O)C(=O)C1(NC(=O)[C@H](CC2(F)CCCC2)NC(=O)C2(C(F)(F)F)CC2)CCC1 [Example A25] | 
21 | 1.3 | 440 | 1700 | CC(C)(C)OC(=O)NC(CC1(F)CCCC1)C(=O)NC1(C(=O)C(N)=O)CC(F)C1 (stereo not drawn) [Example C3] | 
22 | 1.2 | 300 | 3000 | CC1(C[C@H](NC(=O)C(C)(C)C(F)(F)F)C(=O)NC2(C(=O)C(N)=O)CCC2)CCCC1 [Example A24] | 
23 | 0.67 | 490 | 490 | NC(=O)C(=O)C1(NC(=O)[C@H](CC2(F)CCCC2)NC(=O)c2ccc(F)cc2F)CCC1 [Example A17] | 
24 | 1.3 | 280 | 4200 | NC(=O)C(=O)C1(NC(=O)[C@H](CC2CCC2)NC(=O)C2CC2(F)F)CCC1 (single isomer, unassigned) [Example A43-1] | 

Row | SMILES | Ki (human cathepsin S) [nM] | Ki [2] [nM] | Ki (human cathepsin L) [nM] | absorption in man (%) [1] [%]
25 | CCOC(=O)NC(CC1(F)CCCC1)C(=O)NC1(C(=O)C(N)=O)CCC1 (stereo not drawn) [Example C6, [1-(1-Aminooxalyl-cyclobutylcarbamoyl)-2-(1-fluorocyclopentyl)-ethyl]-carbamic acid ethyl ester] | 2.4 | 960 | 3700 | 

From patent publication US8859505B2, “Cysteine protease inhibitors” (Medivir UK Ltd, priority 2010, dated 2014)
